Assay results reported in paper PMC12505902, “Inhibitors of trehalose-6-phosphate synthase activity in fungal pathogens compromise thermal tolerance pathways” (mBio, 2025).

How the values were obtained:
6xHis-CaTps1 = target: T1, 6xHis-CaTps1 (Candida albicans, UniProt Q92410); experiment: Microscale thermophoresis (MST); conditions: label-free MST, one-site binding model, n = 3, SD
T1 construct: Briefly, the full-length; thrombin cleavage site (pET-28a linker) (N); made in house; host or cells: E. coli BL21(DE3)pLysS
T1 sequence (Q92410 1-478): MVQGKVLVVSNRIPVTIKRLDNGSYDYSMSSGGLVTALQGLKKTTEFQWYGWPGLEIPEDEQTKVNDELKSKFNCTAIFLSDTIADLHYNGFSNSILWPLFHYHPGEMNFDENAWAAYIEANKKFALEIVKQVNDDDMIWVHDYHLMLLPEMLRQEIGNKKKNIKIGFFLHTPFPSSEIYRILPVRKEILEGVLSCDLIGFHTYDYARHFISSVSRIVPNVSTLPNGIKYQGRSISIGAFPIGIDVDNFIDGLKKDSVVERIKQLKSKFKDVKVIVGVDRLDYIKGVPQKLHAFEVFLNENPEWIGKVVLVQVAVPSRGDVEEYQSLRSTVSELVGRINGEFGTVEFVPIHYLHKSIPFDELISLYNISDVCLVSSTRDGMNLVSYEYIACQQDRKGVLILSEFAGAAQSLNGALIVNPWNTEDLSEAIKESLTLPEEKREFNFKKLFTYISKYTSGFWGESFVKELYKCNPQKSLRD
Method: (§1) Fig 2 4456dh binds Tps1 and inhibits Tps1 activity. (A) Structure of 4456dh. (B and C) Glo-melt thermal shift assays reveal 4456dh destabilizes 6xHis-CaTps1 (B) and 6xHis-CnTps1 (C). The first derivative of the raw data was used to determine the melting temperature of 1 µM 6xHis-CaTps1 (B) and 1 µM 6xHis-CnTps1 (C) treated without (black) or with 2 mM 4456dh (red). […] The resulting dose-response curves were fitted to a one-site binding model to extract Kd values; the SD was calculated using the Kd values from each independent experiment (n = 3). (F) Tps1 enzyme activity assay with 5 µM 6xHis-CaTps1 (F) and 6xHis-CnTps1 (G) ±1 mM 4456dh. Error bars represent SE. […]
(§2) Given the intrinsic fluorescence of CaTps1 and CnTps1, we were able to detect binding without the use of additional fluorophores. […]
(§3) 82 determined by SDS-PAGE analysis, were pooled and concentrated to 1 mg/mL for downstream […]
(§4) 93 The data were acquired with MO.Control 1.5.3 (NanoTemper Technologies GmbH). Recorded
(§5) 94 data were analyzed with MO.Affinity Analysis 2.2.7 (NanoTemper Technologies GmbH). […]
(§6) 100 2X Glo-melt dye. Thermal denaturation was measured using an RT-PCR thermocycler (BioRad) […]
(§7) 102 determined by identifying the inflection point of the derivative data. […]
(§8) 104 The catalytic activity of C. albicans Tps1 and C. neoformans Tps1 was measured via a continuous […]
(§9) 111 reaction rate was recorded using a plate reader (Tecan). […]

6xHis-CnTps1 = 6xHis-CnTps1 (Cryptococcus neoformans var. grubii, UniProt J9VJZ1); experiment: Microscale thermophoresis (MST); conditions: label-free MST, one-site binding model, n = 3, SD
Method: as §1, §2, §3, §4, §5, §6, §7, §8, §9

Chain of 6xHis-CnTps1 (J9VJZ1 entry or part of it): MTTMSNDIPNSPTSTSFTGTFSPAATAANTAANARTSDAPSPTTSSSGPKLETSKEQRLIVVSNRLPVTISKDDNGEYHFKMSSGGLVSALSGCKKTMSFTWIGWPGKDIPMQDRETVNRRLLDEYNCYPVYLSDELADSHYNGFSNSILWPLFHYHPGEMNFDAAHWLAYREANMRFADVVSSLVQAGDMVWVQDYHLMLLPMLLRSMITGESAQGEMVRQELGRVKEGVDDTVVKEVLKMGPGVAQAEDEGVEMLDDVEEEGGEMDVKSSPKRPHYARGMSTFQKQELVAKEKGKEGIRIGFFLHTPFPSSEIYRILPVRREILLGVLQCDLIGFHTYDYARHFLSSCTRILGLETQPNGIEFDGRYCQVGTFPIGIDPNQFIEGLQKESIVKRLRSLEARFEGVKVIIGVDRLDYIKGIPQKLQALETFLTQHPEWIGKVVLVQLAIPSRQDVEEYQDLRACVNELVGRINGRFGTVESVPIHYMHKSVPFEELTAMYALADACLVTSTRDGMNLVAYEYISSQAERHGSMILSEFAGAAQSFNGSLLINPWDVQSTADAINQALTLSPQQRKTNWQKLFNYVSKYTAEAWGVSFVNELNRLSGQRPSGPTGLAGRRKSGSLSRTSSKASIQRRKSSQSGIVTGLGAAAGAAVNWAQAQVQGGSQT

## Cn1cc(-c2csc(NC(=O)Cc3ccccn3)n2)cn1 [Compound 4456dh]
6xHis-CaTps1
  Kd: 7.1 µM
6xHis-CnTps1
  Kd: 33.4 µM
